Measured values: the NIST ThermoML archive (doi:10.1021/acs.jced.5b00200)
“And” between values parts separate entries of the source, which are not always exact repeats. Equal entries are not always repeated. ± gives the expanded uncertainty stated by the source.

Test: wn = mass fraction of the nth substance listed
Conditions: 297.15 K, 100 kPa, Liquid, Alternating current cell with electrodes

electrical conductivity (w1 = 0.047)	electrical conductivity (w1 = 0.097) [S/m]	SMILES
0.0484 S/m and 0.0479 S/m	–	CC(=O)[O-].[K+] [potassium ethanoate] + O
–	0.0001	CC(C)O [propan-2-ol] + O
0.0438 S/m and 0.0441 S/m	–	CC(=O)[O-].[Na+] [sodium ethanoate] + O

Further lines, the compound ahead of its results:

SMILES	electrical conductivity (w1 = 0.047)	electrical conductivity (w1 = 0.097) [S/m]
CC(=O)[O-].[NH4+] [ammonium acetate] + O	0.0479 ± 0.004 S/m	–
CCC(C)O (stereo not given) [butan-2-ol] + O	–	0.0001
